Measured values reported in publication PMC3792051, “Polyenylpyrrole Derivatives Inhibit NLRP3 Inflammasome Activation and Inflammatory Mediator Expression by Reducing Reactive Oxygen Species Production and Mitogen-Activated Protein Kinase Activation” (PLoS ONE, 2013).

Key:
[1] = system: RAW 264.7 cells; experiment: AlamarBlue assay for cell viability (cytotoxicity); details: read-out: IC50 (cytotoxicity), RAW 264.7 macrophages, 24 h treatment, 6.25-100 µM tested
[2] = system: LPS-activated RAW 264.7 macrophages; experiment: NO production inhibitory assay (Griess reaction); format: cell-based, murine; details: for ED50 (inhibition of LPS-induced NO production): RAW 264.7 macrophages, LPS 1 µg/ml, 24 h, Griess reaction; for NO production by LPS-activated cells: 2.5-40 µM, 30 min before and during LPS 1 µg/ml 24 h; for NO levels produced by non-activated cells: compound alone, no LPS (data not shown)
Description: RAW 264.7 cells seeded in 24-well plates at a density of 5 × 10^5 cells/ml (1 ml) were incubated for 24 h with or without LPS (1 µg/ml) in the absence or presence of the test samples, then NO production was measured indirectly by analysis of nitrite levels using the Griess reaction.
(§1) To investigate the inhibitory effect of compounds 1h, 1i, and 1n on the LPS-induced inflammatory response, NO levels in the supernatants of RAW 264.7 macrophages incubated with DMSO (vehicle) or compound 1h, 1i, or 1n for 30 min before, and during, incubation for 24 h with LPS (1 µg/ml) were measured by the Griess reaction. […] We next investigated their effect on the expression of iNOS, the NO producing enzyme, using Western blots.
(§2) Figure 2 Effect of polyenylpyrrole derivatives on the expression of inflammatory mediators in LPS-stimulated RAW 264.7 macrophages. In (A) and (C), the cells (5 × 10^5/ml; 1 ml) were incubated for 30 min with 2.5-40 µM compound 1h, 1i, or 1n or DMSO (vehicle), then LPS (1 µg/ml) was added and incubation continued for 24 h, then NO (A) or IL-6 or TNF-α (C) in the culture medium was assayed by the Griess reaction or ELISA, respectively. In (B), cells (5 × 10^5/ml; 1 ml) were pretreated for 30 min with 2.5-40 µM compound 1h or DMSO, then LPS (1 µg/ml) was added and incubation continued for 24 h, then expression of iNOS and COX-2 was measured by Western blotting. The fold increase is the intensity of the band of interest divided by that of the actin band normalized to the corresponding value for the 0 LPS/0 inhibitor control.

[3] = system: LPS-activated RAW 264.7 macrophages; experiment: iNOS and COX-2 expression by Western blot; format: cell-based, murine; details: 30 min pretreatment, LPS 24 h; for COX-2 expression / LPS-induced iNOS expression: 0-40 µM; for Concentration at which reduction of LPS-induced iNOS expression is significant: Western blot
Description: Cells were washed twice with ice-cold phosphate-buffered saline (PBS) and lysed on ice for 5 min with lysis buffer (20 mM Tris-HCl, pH 7.5, 150 mM NaCl, 1 mM Na 2EDTA, 1 mM EGTA, 1% Triton X-100, 2.5 mM sodium pyrophosphate, 1 mM beta-glycerophosphate, 1 mM Na 3VO4, 1 µg/ml of leupeptin, 1 mM PMSF, protease inhibitor cocktail). The lysate was then centrifuged at 12,000 x g at 4 °C for 10 min and the pellet discarded. Proteins in the supernatant were separated by SDS-PAGE and electrotransferred to a PVDF membrane (EMD Millipore Corporation), which was then blocked by incubation for 1 h at room temperature in blocking buffer [(5% nonfat milk in PBS containing 0.1% Tween 20 (PBST)], then incubated for 2 h at room temperature with the primary antibody diluted in blocking buffer. After three washes in PBST, the membrane was incubated for 1 h at room temperature with an appropriate HRP-conjugated secondary antibody diluted in blocking buffer and developed using an enhanced chemiluminescence Western blot detection system (EMD Millipore Corporation).
as §1, §2

[4] = system: LPS-activated RAW 264.7 macrophages; experiment: IL-6 and TNF-α secretion by ELISA; format: cell-based, murine; details: for IL-6 production by LPS-activated cells / TNF-α secretion by LPS-activated cells: RAW 264.7, 2.5-40 µM, LPS 1 µg/ml 24 h; for Background levels of IL-6 and TNF-α in non-stimulated macrophages: RAW 264.7, no LPS (data not shown)
Description: The effects of the test samples on IL-1β, TNF-α, and IL-6 production were measured by ELISA according to the manufacturer’s instructions. In brief, 50 µl of biotinylated antibody reagent and 50 µl of supernatant were added to a stripwell plate precoated with anti-mouse IL-1β, TNF-α, or IL-6 antibodies, which was then incubated at room temperature for 2 h. After washing the plate three times with washing buffer, 100 µl of diluted streptavidin-HRP concentrate was added to each well and the plate incubated at room temperature for 30 min. The washing process was repeated, then 100 µl of a premixed tetramethylbenzidine substrate solution was added to each well and the plate incubated at room temperature in the dark for 30 min. After addition of 100 µl of stop solution to each well, the absorbance at 450 nm of each well was measured on a microplate reader.
as §1, §2

[5] = system: ATP-activated LPS-primed J774A.1 macrophages; experiment: Intracellular ROS production (DCF fluorescence), ATP-induced; format: cell-based, murine
Description: Intracellular ROS production was measured by detecting the fluorescence intensity of the 2’, 7’-dichlorofluorescein, the oxidation product of 2’, 7’-dichlorofluorescein diacetate (Molecular Probes, Eugene, OR). […] In another, J774A.1 macrophages (5 × 10^5/ml; 0.1 ml) were incubated with LPS (1 µg/ml) for 6 h, then vehicle, compound 1h (20 µM), or DPI (25 µM) was added for 30 min. 2’, 7’-dichlorofluorescein diacetate (2 µM) was then added for 30 min before incubation with ATP (5 mM) for the indicated time; while, in another, the order of addition of compound1h/DPI and LPS was reversed. The fluorescence intensity of 2’, 7’-dichlorofluorescein was detected at an excitation wavelength of 485 nm and an emission wavelength of 530 nm on a microplate absorbance reader (Bio-Rad Laboratories, Inc).
In (A), J774A.1 macrophages (1 × 10^6/ml; 1 ml) were incubated with LPS (1 µg/ml) for 6 h, then with compound 1h (20 µM), the NADPH oxidase inhibitor DPI (25 µM), or DMSO (vehicle) for 30 min in the continued presence of LPS, then 2’,7’-dichlorofluorescein diacetate (2 µM) was added for 30 min, followed by ATP (5 mM) for the indicated time, then ROS levels were determined by measuring the mean fluorescence intensity (MFI) of the fluorophore carboxyl-DCF and expressing this value relative to that at time zero. In (B), J774A.1 macrophages (1 × 10^6/ml; 1 ml) were incubated with compound 1h (20 µM), DPI (25 µM), or DMSO (vehicle) for 30 min, then LPS (1 µg/ml) was added for 6 h; the cells were then incubated with 2’,7’-dichlorofluorescein diacetate (2 µM) for 30 min, then with ATP (5 mM) for the indicated time and ROS levels were measured by detection of the fluorescence intensity of the fluorophore carboxyl-DCF and expressed relative to that at time zero.

[6] = system: LPS-activated RAW 264.7 macrophages; experiment: Intracellular ROS production (DCF fluorescence), LPS-induced; format: cell-based, murine; details: RAW 264.7, 30 min pretreatment; compound 1h 20 µM, NAC 10 mM
Description: Intracellular ROS production was measured by detecting the fluorescence intensity of the 2’, 7’-dichlorofluorescein, the oxidation product of 2’, 7’-dichlorofluorescein diacetate (Molecular Probes, Eugene, OR). In one study, RAW 264.7 macrophages (5 × 10^5/ml; 0.1 ml) were incubated with vehicle, compound 1h (20 µM), or NAC (10 mM) for 30 min, then 2’, 7’-dichlorofluorescein diacetate (2 µM) was added for 30 min, then LPS was added for the indicated time. In another, J774A.1 macrophages (5 × 10^5/ml; 0.1 ml) were incubated with LPS (1 µg/ml) for 6 h, then vehicle, compound 1h (20 µM), or DPI (25 µM) was added for 30 min. 2’, 7’-dichlorofluorescein diacetate (2 µM) was then added for 30 min before incubation with ATP (5 mM) for the indicated time; while, in another, the order of addition of compound1h/DPI and LPS was reversed. The fluorescence intensity of 2’, 7’-dichlorofluorescein was detected at an excitation wavelength of 485 nm and an emission wavelength of 530 nm on a microplate absorbance reader (Bio-Rad Laboratories, Inc).
To test whether compound 1h exerted its anti-inflammatory effect on LPS-activated cells by downregulation of ROS production, intracellular ROS production in LPS-activated RAW 264.7 macrophages was measured.
Figure 5 Effect of compound 1h on ROS production and MAPK phosphorylation in LPS-activated macrophages. […]

[7] = in vitro; details: mouse
[8] = system: various cancer cells; set-up: method as in PMID 16468746; details: cited from earlier work

Q: With COc1cc(/C=C/C=C/C=C/C=C/c2[nH]ccc2Cl)oc(=O)c1 [1a] as the compound, how does the IC50 [1] read?
A: < 10 µM

Q: For CCCCc1c(OC)cc(/C=C/C=C/C=C/C=C/c2[nH]ccc2Cl)oc1=O [1c], which IC50 [1] is on record?
A: < 10 µM

Q: With COc1cc(/C(C)=C/C=C/C=C/C=C/c2[nH]ccc2Cl)oc(=O)c1 [1d] as the compound, how does the IC50 [1] read?
A: < 10 µM

Q: With CC\C(=C/C=C/C=C/C=C/c1[nH]ccc1Cl)c1cc(OC)c(C)c(=O)o1 [1f] as the compound, how does the IC50 [1] read?
A: < 10 µM

Q: With CCCCc1c(OC)cc(/C(C)=C/C=C/C=C/C=C/c2[nH]ccc2Cl)oc1=O [1g] as the compound, how does the IC50 [1] read?
A: < 10 µM

Q: Which results are given for COc1cc(/C=C/C=C/C=C/C=C/c2sccc2Cl)oc(=O)c1 [1j]?
A: ED50 (inhibition of LPS-induced NO production) [2]: 29 ± 6 µM; IC50 [1]: > 100 µM

Q: Which “ED50 (inhibition of LPS-induced NO production)” value [2] does the source give for COc1cc(/C=C/C=C/C=C/C=C/c2sccc2Cl)oc(=O)c1C [1k] here?
A: 18 ± 2 µM

Q: And the IC50 [1]?
A: > 100 µM

Q: With COc1cc(/C=C/C=C/C=C/C=C/c2ccccc2Cl)oc(=O)c1C [1l] as the compound, how does the “ED50 (inhibition of LPS-induced NO production)” value [2] read?
A: 18 ± 3 µM

Q: What about the IC50 [1] of the same compound?
A: > 100 µM

Q: Which “ED50 (inhibition of LPS-induced NO production)” value [2] does the source give for COc1cc(/C=C/C=C/C=C/C=C/c2cccc(Cl)c2)oc(=O)c1C [1m] here?
A: 26 ± 3 µM

Q: And the IC50 [1]?
A: > 100 µM

Q: What does the source list for COc1cc(/C=C/C=C/C=C/C=C/c2c(Cl)ccn2S(C)(=O)=O)oc(=O)c1C [1n]?
A: NO production by LPS-activated cells [2]: decreased NO production by LPS-activated cells in a dose-dependent manner; ED50 (inhibition of LPS-induced NO production) [2]: 17 ± 2 µM; NO levels produced by non-activated cells [2]: did not alter NO levels produced by non-activated cells; COX-2 expression [3]: did not affect expression of COX-2; LPS-induced iNOS expression [3]: reduced LPS-induced iNOS expression; Concentration at which reduction of LPS-induced iNOS expression is significant [3]: 40 µM; IC50 [1]: > 100 µM; IL-6 production by LPS-activated cells [4]: significantly decreased IL-6 production by LPS-activated cells in a dose-dependent manner; TNF-α secretion by LPS-activated cells [4]: only slightly and non-significantly reduced; Background levels of IL-6 and TNF-α in non-stimulated macrophages [4]: none of the three compounds altered background levels of IL-6 and TNF-α

Q: For c1ccc2c(c1)[I+]c1ccccc1-2 [DPI, diphenylene iodonium, reference compound], which “ATP-induced ROS production, compound added after LPS priming” value ([5]; J774A.1, LPS 6 h, then compound 1h 20 µM or DPI 25 µM 30 min, ATP 5 mM 0-40 min) is on record?
A: inhibited both processes

Q: And the “ATP-induced ROS production, compound added 30 min before LPS priming” value ([5]; J774A.1, compound 1h 20 µM or DPI 25 µM 30 min, then LPS 6 h, then ATP 5 mM)?
A: inhibited both processes

Q: For CC(=O)N[C@@H](CS)C(=O)O [NAC, N-acetyl cysteine, reference compound], which “LPS-stimulated ROS production” value [6] is on record?
A: reduced ROS production

Q: Which IC50 [7] does the source give for COc1cc(/C=C/C=C/C=C/C=C/c2[nH]ccc2Cl)oc(=O)c1C [compound 1b, auxarconjugatin A] here?
A: < 10 µM

Q: With COc1cc(/C(C)=C/C=C/C=C/C=C/c2[nH]ccc2Cl)oc(=O)c1C [compound 1e, 12E-isorumbrin] as the compound, how does the “Cytotoxicity for various cancer cells” value [8] read?
A: shown to be cytotoxic for various cancer cells

Q: And the IC50 [7]?
A: < 10 µM

Q: With Cc1c(O)cc(/C=C/C=C/C=C/C=C/c2[nH]ccc2Cl)oc1=O [compound 1i] as the compound, how does the “NO production by LPS-activated cells” value [2] read?
A: decreased NO production by LPS-activated cells in a dose-dependent manner

Q: And the “ED50 (inhibition of LPS-induced NO production)” value [2]?
A: 16 ± 2 µM

Q: And the “NO levels produced by non-activated cells” value [2]?
A: did not alter NO levels produced by non-activated cells

Q: What about the COX-2 expression [3] of the same compound?
A: did not affect expression of COX-2

Q: What about the “LPS-induced iNOS expression” value [3] of the same compound?
A: reduced LPS-induced iNOS expression

Q: And the “Concentration at which reduction of LPS-induced iNOS expression is significant” value [3]?
A: 40 µM

Q: And the IC50 [1]?
A: > 100 µM

Q: And the “IL-6 production by LPS-activated cells” value [4]?
A: significantly decreased IL-6 production by LPS-activated cells in a dose-dependent manner

Q: And the “TNF-α secretion by LPS-activated cells” value [4]?
A: only slightly and non-significantly reduced

Q: And the “Background levels of IL-6 and TNF-α in non-stimulated macrophages” value [4]?
A: none of the three compounds altered background levels of IL-6 and TNF-α
